# From US12661342B2, “Heteroaryl compounds and therapeutic uses thereof in conditions associated with the alteration of the activity of beta-glucocerebrosidase” (GT GAIN THERAPEUTICS SA, priority 2019, dated 2026)
# Biological target: T1, β-glucocerebrosidase (Homo sapiens, UniProt P04062, L483P)
# T1 construct: host or cells: human Gaucher disease patient fibroblasts GM08760A
# T1 sequence (P04062 40-536 L483P): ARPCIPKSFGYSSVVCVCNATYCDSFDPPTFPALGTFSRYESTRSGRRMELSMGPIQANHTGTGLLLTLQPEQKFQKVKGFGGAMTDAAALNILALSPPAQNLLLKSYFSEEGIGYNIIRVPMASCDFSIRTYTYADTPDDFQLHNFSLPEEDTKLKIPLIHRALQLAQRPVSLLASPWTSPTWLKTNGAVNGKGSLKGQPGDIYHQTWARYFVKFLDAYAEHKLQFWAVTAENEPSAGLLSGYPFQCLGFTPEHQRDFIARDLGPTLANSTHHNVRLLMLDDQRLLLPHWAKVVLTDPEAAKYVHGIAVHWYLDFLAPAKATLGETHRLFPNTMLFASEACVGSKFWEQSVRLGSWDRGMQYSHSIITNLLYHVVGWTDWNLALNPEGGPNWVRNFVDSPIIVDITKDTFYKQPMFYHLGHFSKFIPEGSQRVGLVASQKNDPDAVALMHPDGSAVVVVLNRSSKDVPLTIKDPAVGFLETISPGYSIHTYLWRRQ
# Assay: Enhancement of β-glucocerebrosidase activity measured in Gaucher disease fibroblasts (4-MU-β-D-glucopyranoside substrate, intact cells)
# Assay type: cell-based
# Set-up: key: Increase in comparison with non-treated of >2.0 fold is shown as A; Increase in comparison with non-treated of >1.7-2.0 fold is shown as B; Increase in comparison with non-treated of 1.2-1.7 fold is shown as C; D means that no increase compared with non-treated cells was detected in this method
# Settings: GBA fibroblasts bearing L444P (GM08760A, homozygous p.L444P); compound at concentrations between 6 and 50 μM; 4 days incubation
# Experimental: Human fibroblasts from a patient with Gaucher disease homozygous for p.L444P mutation (GM08760A) were purchased from Coriell Institute for Medical Research (Camden, NJ, USA).
# Fibroblasts were seeded at 5×10^3 cells per well in 96-well cell culture plates (Corning, NY, USA) in Dulbecco's Modified Eagle's Media (DMEM) supplemented with 10% of fetal bovine serum (FBS), 1% penicillin/streptomycin (P/S) (Thermo Fisher Scientific, Waltham, MA, USA) and grown at 37° C., 5% CO2 overnight for cell attachment. Subsequently, cells were incubated in the absence or presence of the compounds at the desired concentration for 4 days. After incubation, cells were washed twice with phosphate-buffered saline (PBS) and enzyme activity assay was performed.
# β-glucocerebrosidase activity in intact cultured cells was measured by using 4-methylumbelliferyl-β-D-glucopyranoside substrate (Apollo Scientific, UK). Briefly, cells were incubated with 4-MU-β-D-glucopyranoside in 0.1 M acetate buffer pH=4 at 37° C. for 1 hour. The reaction was stopped by adding 200 μL at 100 mM glycine-NaOH pH=10.7. The liberated 4-MU was measured on a GloMax Discover plate reader (Promega, Madison, WI, USA) with and excitation at 340 nm and emission at 460 nm. Enzyme activities were expressed in treated cells as X-fold increase in comparison with non-treated cells (X=1 represents no enhancement).
# The capacity of the compounds of the disclosure to produce an increase in enzyme activity in GBA fibroblasts bearing L444P at concentrations between 6 and 50 μM is denoted as follows: • Increase in comparison with non-treated of >2.0 fold is shown as A • Increase in comparison with non-treated of >1.7-2.0 fold is shown as B • Increase in comparison with non-treated of 1.2-1.7 fold is shown as C • D means that no increase compared with non-treated cells was detected in this method • ND means “not determined”
row,SMILES,Range: increase in enzyme activity in comparison with non-treated cells (Enzyme activity assay for compounds of Examples 33-141)
1,"COc1ccccc1Nc1cc(N)nc(C(=O)N(C)c2ccccc2)c1 [Example 50, 6-Amino-4-((2-methoxyphenyl)amino)-N-methyl-N-phenylpicolinamide]",D
2,"COc1ccccc1Nc1cc(N)nc(C(=O)N2CCN(c3ccccc3)CC2)c1 [Example 51, (6-Amino-4-((2-methoxyphenyl)amino)pyridin-2-yl)(4-phenylpiperazin-1-yl)methanone]",C (Increase in comparison with non-treated of 1.2-1.7 fold is shown as C)
3,"COc1ccccc1Nc1cc(N)nc(C(=O)NC2CCc3ccccc3C2)c1 (stereo not shown) [Example 52, 6-Amino-4-((2-methoxyphenyl)amino)-N-(1,2,3,4-tetrahydronaphthalen-2-yl)picolinamide]",B (Increase in comparison with non-treated of >1.7-2.0 fold is shown as B)
4,"COc1ccccc1Nc1cc(N)nc(C(=O)Nc2ccccc2)c1 [Example 53, 6-Amino-4-((2-methoxyphenyl)amino)-N-phenylpicolinamide]",C (Increase in comparison with non-treated of 1.2-1.7 fold is shown as C)
5,"COc1ccccc1Nc1cc(N)cc(C(=O)NC2Cc3ccccc3C2)n1 [Example 54, 4-Amino-N-(2,3-dihydro-1H-inden-2-yl)-6-((2-methoxyphenyl)amino)picolinamide]",C (Increase in comparison with non-treated of 1.2-1.7 fold is shown as C)
6,"Nc1cc(Nc2ccccc2O)nc(C(=O)NC2Cc3ccccc3C2)n1 [Example 56, 4-Amino-N-(2,3-dihydro-1H-inden-2-yl)-6-((2-hydroxyphenyl)amino)pyrimidine-2-carboxamide]",B (Increase in comparison with non-treated of >1.7-2.0 fold is shown as B)
7,"Nc1cc(Nc2ccccc2O)cc(C(=O)N2Cc3ccccc3C2)n1 [Example 58, (6-Amino-4-((2-hydroxyphenyl)amino)pyridin-2-yl)(isoindolin-2-yl)methanone]",B (Increase in comparison with non-treated of >1.7-2.0 fold is shown as B)
8,"COc1ccccc1Nc1cc(N)nc(C(=O)N2Cc3ccccc3C2)c1 [Example 59, (6-Amino-4-((2-methoxyphenyl)amino)pyridin-2-yl)(isoindolin-2-yl)methanone]",C (Increase in comparison with non-treated of 1.2-1.7 fold is shown as C)
9,Nc1cc(Nc2ccccc2Cl)cc(C(=O)N2CCN(c3ccccc3)CC2)n1 [Example 60],C (Increase in comparison with non-treated of 1.2-1.7 fold is shown as C)
10,"Nc1cc(Nc2ccccc2O)cc(C(=O)N2CCN(c3ccccc3)CC2)n1 [Example 61, (6-Amino-4-((2-hydroxyphenyl)amino)pyridin-2-yl)(4-phenylpiperazin-1-yl)methanone]",C (Increase in comparison with non-treated of 1.2-1.7 fold is shown as C)
11,Nc1cc(Nc2ccccc2F)cc(C(=O)N2CCN(c3ccccc3)CC2)n1 [Example 62],D
12,"Nc1cc(Nc2ccccc2O)cc(C(=O)N2CCc3ccccc32)n1 [Example 64, (6-Amino-4-((2-hydroxyphenyl)amino)pyridin-2-yl)(indolin-1-yl)methanone]",C (Increase in comparison with non-treated of 1.2-1.7 fold is shown as C)
13,"Nc1cc(Nc2ccccc2O)cc(C(=O)Nc2ccccc2)n1 [Example 65, 6-Amino-4-((2-hydroxyphenyl)amino)-N-phenylpicolinamide]",A (Increase in comparison with non-treated of >2.0 fold is shown as A)
14,"Nc1cc(Nc2ccccc2O)cc(C(=O)NC2Cc3ccccc3C2)n1 [Example 67, 6-Amino-N-(2,3-dihydro-1H-inden-2-yl)-4-((2-hydroxyphenyl)amino)picolinamide]",B (Increase in comparison with non-treated of >1.7-2.0 fold is shown as B)
15,"Cc1ccc(Nc2cc(N)nc(C(=O)NC3Cc4ccccc4C3)c2)c(O)c1 [Example 68, 6-Amino-N-(2,3-dihydro-1H-inden-2-yl)-4-((2-hydroxy-4-methylphenyl)amino)picolinamide]",C (Increase in comparison with non-treated of 1.2-1.7 fold is shown as C)
16,"Nc1cc(Nc2ccc(F)cc2O)cc(C(=O)NC2Cc3ccccc3C2)n1 [Example 69, 6-Amino-N-(2,3-dihydro-1H-inden-2-yl)-4-((4-fluoro-2-hydroxyphenyl)amino)picolinamide]",B (Increase in comparison with non-treated of >1.7-2.0 fold is shown as B)
17,"Nc1cc(Nc2ccccc2F)cc(C(=O)NC2Cc3ccccc3C2)n1 [Example 70, 6-Amino-N-(2,3-dihydro-1H-inden-2-yl)-4-((2-fluorophenyl)amino)picolinamide]",D
18,"Nc1cc(Nc2ccccc2F)nc(C(=O)NC2Cc3ccccc3C2)c1 [Example 71, 4-Amino-N-(2,3-dihydro-1H-inden-2-yl)-6-((2-fluorophenyl)amino)picolinamide]",B (Increase in comparison with non-treated of >1.7-2.0 fold is shown as B)
19,"Nc1cc(Nc2ccccc2Cl)cc(C(=O)NC2Cc3ccccc3C2)n1 [Example 72, 6-Amino-4-((2-chlorophenyl)amino)-N-(2,3-dihydro-1H-inden-2-yl)picolinamide]",D
20,"Nc1cc(Nc2cccc3c2OCO3)cc(C(=O)Nc2ccccc2)n1 [Example 73, 6-Amino-4-(benzo[d][1,3]dioxol-4-ylamino)-N-phenylpicolinamide]",C (Increase in comparison with non-treated of 1.2-1.7 fold is shown as C)
21,"Nc1cc(Nc2ccccc2F)cc(C(=O)Nc2ccccc2)n1 [Example 74, 6-Amino-4-((2-fluorophenyl)amino)-N-phenylpicolinamide]",C (Increase in comparison with non-treated of 1.2-1.7 fold is shown as C)
22,"Nc1cc(Nc2ccccc2F)nc(C(=O)Nc2ccccc2)c1 [Example 75, 4-Amino-6-((2-fluorophenyl)amino)-N-phenylpicolinamide]",C (Increase in comparison with non-treated of 1.2-1.7 fold is shown as C)
23,"COc1ccccc1Nc1cc(N)nc(C(=O)NC2Cc3ccccc3C2)c1 [Example 76, 6-Amino-N-(2,3-dihydro-1H-inden-2-yl)-4-((2-methoxyphenyl)amino)picolinamide]",D
24,"Cc1ccc(Nc2cc(N)nc(C(=O)Nc3ccccc3)c2)c(O)c1 [Example 77, 6-Amino-4-((2-hydroxy-4-methylphenyl)amino)-N-phenylpicolinamide]",C (Increase in comparison with non-treated of 1.2-1.7 fold is shown as C)
25,"Nc1cc(Nc2ccc(F)cc2O)cc(C(=O)Nc2ccccc2)n1 [Example 78, 6-Amino-4-((4-fluoro-2-hydroxyphenyl)amino)-N-phenylpicolinamide]",B (Increase in comparison with non-treated of >1.7-2.0 fold is shown as B)
